Data: patent US10316056B2, “Chemical compounds and use thereof for improving muscular quality” (BIOPHYTIS, priority 2014, dated 2019)

Legend:
MyoD transcripts = experiment: Mice subjected to a high-fat diet: MyoD transcripts of the Soleus muscle; assay type: in vivo, C57BL/6J mice; conditions: 5 mg/kg orally; high-fat diet for 6 weeks; FIG. 5A
Protocol: (§1) The 20E as comparative compound and the compounds according to the invention (Nos. 51 and 93) were administered orally, at a dose of 5 mg/kg of body weight, to 12-week-old C57BL/6J mice subjected to a high-fat diet for 6 weeks. The effect of the compounds on the weight and the amount of proteins of the Soleus muscle and also the transcripts of genes involved in myogenesis were evaluated.
(§2) Myogenesis, which is the process for forming muscle tissues, is controlled by several myogenic transcription factors which act as end effectors of the signaling cascade and produce transcripts involved in the various stages of development. The roles of the transcription factors have been described in various journals (Sabourin and Rudnicki 2000 and Le Grand and Rudnicki 2007). The Pax7 protein (Paired-box protein 7) maintains a population of satellite cells in quiescence and, with Myf5 (Myogenic factor 5), plays a role in the expansion of activated myoblasts. The MyoD protein (Myoblast Determination protein) appears to determine the differentiation potential of activated myoblasts, and cooperates with myogenin and the MEF2 (Myocyte Enhancer Factor 2) protein to control and bring about differentiation. Finally, MRF4 (Muscle-specific Regulatory Factor 4) is required for hypertrophy, even though it probably plays other roles. […]
(§3) The relative differences in gene expression between treatments are expressed as increase or decrease in the number of cycle times [Ct] compared with the control group, the [Ct] value of each gene having been standardized with the beta-actin gene.
(§4) The in vivo study is carried out by evaluating the effect of 20E as comparative compound and of the molecules according to the invention (Nos. 51 and 93) administered orally, at a dose of 5 mg/kg of body weight, to C57BL/6 mice subjected to a high-fat diet for 6 weeks. The effect of the molecules on the weight and the amount of proteins of the Soleus muscle and also the transcripts of genes involved in myogenesis were evaluated.

myogenin transcripts = experiment: Mice subjected to a high-fat diet: myogenin transcripts of the Soleus muscle; assay type: in vivo, C57BL/6J mice; conditions: 5 mg/kg orally; high-fat diet for 6 weeks; FIG. 5B
Protocol: as §1, §2, §3, §4

myostatin transcript = experiment: Mice subjected to a high-fat diet: myostatin transcript of the Soleus muscle; assay type: in vivo, C57BL/6J mice; conditions: 5 mg/kg orally; high-fat diet for 6 weeks; FIG. 4
Protocol: as §1
In order to carry out the gene expression analysis, the muscle tissues were homogenized in a Trizol solution (500 μl), and the RNAs were extracted and purified using the phenol/chloroform method. An amount of […] of RNA was used as template for the synthesis of the first cDNA strand using oligo (dT)s as primers and the AMV reverse transcriptase enzyme as described by the supplier (Applied Biosystems 4368814). The q-PCRs were then carried out using a 7900HT machine equipped with a rapid system for real-time detection by PCR (Applied Biosystems) and the standard qPCR program (1 cycle of 95° C. for 15 min, 40 cycles of 95° C. for 15 s and 60° C. for 1 min, a 60-95° C. melt curve for the Sybergreen probes). The experiments are carried out in a Sybergreen SYBR master mix (Applied Biosystems) containing the 100 ng cDNA samples and a set of primers which bind to the two different exons and at a final concentration of 200 nM.
as §3, §4

[1] = tested on: S6 kinase (S6K1) phosphorylation in C2C12 cells; experiment: Phosphorylation of the S6 kinase in C2C12 cells (ELISA pS6K T389), protein synthesis; assay type: cell-based, mouse; conditions: Mus musculus, C2C12, 2 h; for activity at 10 µM: read-out: Protein synthesis (percentage increase in S6K phosphorylation in muscle cells); for activity: test compounds and 20E reference (10 μM), read-out: S6K1 phosphorylation level

Structure (SMILES): CCC(CC)C(=O)N(CCOC)C(C)[C@H]1CC[C@@]2(O)C3=CC(=O)[C@@H]4C[C@@H](O)[C@@H](O)C[C@]4(C)C3CC[C@]12C (stereo partly drawn) [Compound 51, 2-ethyl-N-(2-methoxyethyl)-N-[1-[(2S,3R,5R,10R,13R,14S,17S)-2,3,14-trihydroxy-10,13-dimethyl-6-oxo-2,3,4,5,9,11,12,15,16,17-decahydro-1H-cyclopenta[a]phenanthren-17-yl]ethyl]butanamide]
- transcripts of the MyoD gene (MyoD transcripts): increase
- transcript of the myogenin gene (myogenin transcripts): increase
- myostatin expression in the Soleus muscle (myostatin transcript): comparably inhibit
- activity at 10 µM [1]: 110 to 129%
- activity [1]: ~120%

Structure (SMILES): CCSCC(=O)[C@H]1CC[C@@]2(O)C3=CC(=O)[C@@H]4C[C@@H](O)[C@@H](O)C[C@]4(C)C3CC[C@]12C (stereo partly drawn) [Compound 93, (2S,3R,5R,10R,13R,14S,17S)-17-(2-ethylsulfanylacetyl)-2,3,14-trihydroxy-10,13-dimethyl-2,3,4,5,9,11,12,15,16,17-decahydro-1H-cyclopenta[a]phenanthren-6-one]
- transcripts of the MyoD gene (MyoD transcripts): increase
- transcript of the myogenin gene (myogenin transcripts): increase
- myostatin expression in the Soleus muscle (myostatin transcript): comparably inhibit
- activity at 10 µM [1]: > 130%
- activity [1]: 130 to 140%
